# Data published in patent US4965280A, “Antifungal carbinols” (E. I. Du Pont de Nemours and Company, priority 1989, dated 1990).
# Read-outs that look alike come from different tables or passages of the source.
# Legend:
# [1] = system: Candida albicans ATCC 11651; test: In vivo systemic Candida infection in mice, primary assay; parameters: species or system Candida albicans; CF-1 female mice; settings: Candida albicans, 150 mg/kg per day, read-out: % Survival
# Method in brief: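 CF-1 female mice (20 g, 10 per group) were infected IV with 0.2 ml of 1×10^7/ml C. albicans ATCC 11651, then given test compound subcutaneously at 50 or 150 mg/kg/day at 1 and 6 h post-infection and once daily for three more days. Survival was followed for 21 days against infected untreated mice; ≥70% protection at 14 days was scored active.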
# Venturia inaequalis = test: Example A apple scab; format: in vivo; settings: read-out: disease control rating, Ex. A
# Method in brief: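 Spray application to run-off on apple seedlings; compound at 100 or 20 ppm in water with 250 ppm TREM 014 (polyhydric alcohol esters) and 6% acetone of final volume.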
# [2] = system: Erysiphe graminis f. sp. tritici; test: Example D wheat powdery mildew; format: in vivo; settings: Blumeria graminis, 144 h, read-out: disease control rating, Ex. D
# Method in brief: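 Seedling wheat was treated by spraying to run-off; formulation used acetone as co-solvent (6% final) and TREM 014 surfactant at 250 ppm, with compound at 100 or 20 ppm.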
# Pyricularia oryzae = test: whole plant or invertebrate; format: in vivo; settings: Pyricularia oryzae, 120 h; for pest or weed control at 100 ppm: read-out: disease control rating, Ex. E, 100 PPM
# Rhizoctonia solani [3] = test: Example F rice sheath blight; format: in vivo; settings: Rhizoctonia solani, 144 h, read-out: disease control rating, Ex. F
# Method in brief: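 Foliar run-off spray, rice seedlings: compound at 100 or 20 ppm in aqueous 250 ppm polyhydric alcohol ester surfactant, acetone 6% v/v final.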
# Rhizoctonia solani [4] = test: Example K cotton blight; format: in vivo; settings: 336 h, 5 kg/ha, read-out: disease control rating, Ex. K
# Protocol: […] Seeds and soil were then inoculated with a mixture of sand, cereal and mycelium of the fungus Rhizoctonia solani, causal agent of cotton blight, and incubated in a growth chamber at 30° C. for 14 days. Disease ratings were then made.
# Sclerotium rolfsii = test: Example M southern blight; format: in vivo; settings: Agroathelia rolfsii, 336 h; 5 kg/ha; read-out: disease control rating, Ex. M
# Protocol: […] Seeds and soil were then inoculated with a mixture of sand, cereal and mycelium of the fungus Sclerotium rolfsii, causal agent of sourthern blight, and incubated in a growth chamber at 30° C. for 14 days. Disease ratings were then made.
# ARROWHEAD = test: Test C rice paddy; format: in vivo, Sagittaria spp.; settings: Sagittaria, 504 h, 21 days, read-out: plant response; for pest or weed control at 64 g/ha: 0064 G/HA; for pest or weed control at 125 g/ha: 0125 G/HA; for pest or weed control at 250 g/ha: 0250 G/HA; for pest or weed control at 500 g/ha: 0500 G/HA
# Text: (§1) Sixteen cm diameter Airlite plastic pots were partially filled with Tama slit loam soil and the soil saturated with water. Japonica and Indica rice seedlings a the 2.0 to 2.5 leaf stage were transplanted into 1/3 of the pots. Into another third of the pots were transplanted seedling or sprouted tubers of water plantain (Alisma trivale), Scripus (Scirpus paludosus), Cyperus (Cyperus esculentus), and arrowhead (Sagittaria spp.). The remaining pots were planted with barnyardgrass (Echinochloa crusgalli) seeds and sprouted tubes of water chestnut (Eleocharis spp.). These weeds all represent major rice weeds or genera of weeds important in rice. Three to four days after planting, the water level was raised to 3 cm (about 1200 ml/pot) and maintained a this level throughout the test. Chemical treatments were applied directly to the paddy water, within 24 hours of raising the water, after being formulated in a nonphytotoxic solvent. The pots were maintained in the greenhouse.
# SCIRPUS = test: Test C rice paddy; format: in vivo, Scirpus paludosus; settings: Bolboschoenus maritimus, 504 h, 21 days, read-out: plant response; for pest or weed control at 64 g/ha: 0064 G/HA; for pest or weed control at 125 g/ha: 0125 G/HA; for pest or weed control at 250 g/ha: 0250 G/HA; for pest or weed control at 500 g/ha: 0500 G/HA
# Text: as §1
# YELLOW NUTSEDGE = test: Test C rice paddy; format: in vivo, Cyperus esculentus; settings: 21 days
# Text: as §1
# WATER PLAINTAIN = test: Test C rice paddy; format: in vivo, Alisma trivale; settings: 504 h, 21 days, read-out: plant response; for pest or weed control at 64 g/ha: 0064 G/HA; for pest or weed control at 125 g/ha: 0125 G/HA; for pest or weed control at 250 g/ha: 0250 G/HA; for pest or weed control at 500 g/ha: 0500 G/HA
# Text: as §1
# RICE INDICA EFF = test: Test C rice paddy; format: in vivo; settings: Oryza sativa, 504 h, 21 days, read-out: plant response; for pest or weed control at 64 g/ha: 0064 G/HA; for pest or weed control at 125 g/ha: 0125 G/HA; for pest or weed control at 250 g/ha: 0250 G/HA; for pest or weed control at 500 g/ha: 0500 G/HA
# Text: as §1
# [5] = system: Aspergillus fumigatus ATCC 28214; test: In vitro antifungal MIC, microtiter broth dilution; settings: Aspergillus fumigatus, ATCC28214, 24 h, read-out: MIC values, A. fumigatus, 30°, 24 hours
SMILES,pest or weed control at 100 ppm (Pyricularia oryzae),pest or weed control at 100 ppm (Rhizoctonia solani [3]),pest or weed control at 5000 g/ha (Rhizoctonia solani [4]),pest or weed control at 5000 g/ha (Sclerotium rolfsii),pest or weed control at 64 g/ha (ARROWHEAD),pest or weed control at 125 g/ha (ARROWHEAD),pest or weed control at 250 g/ha (ARROWHEAD),pest or weed control at 500 g/ha (ARROWHEAD),pest or weed control at 1000 g/ha (ARROWHEAD),pest or weed control at 64 g/ha (SCIRPUS),pest or weed control at 125 g/ha (SCIRPUS),pest or weed control at 250 g/ha (SCIRPUS),pest or weed control at 500 g/ha (SCIRPUS),pest or weed control at 1000 g/ha (SCIRPUS),plant response (YELLOW NUTSEDGE; 0064 G/HA),plant response (YELLOW NUTSEDGE; 0125 G/HA),plant response (YELLOW NUTSEDGE; 0250 G/HA),plant response (YELLOW NUTSEDGE; 0500 G/HA),plant response (YELLOW NUTSEDGE; 1000 G/HA),pest or weed control at 64 g/ha (WATER PLAINTAIN),also measured
"C=C(c1ccccc1Cl)C(O)(Cn1cncn1)c1ccc(Cl)cc1Cl (stereo not drawn) [Example 33, 2-(2,4-Dichlorophenyl)-3-(2-chlorophenyl)-1-(1H-1,2,4-triazol-1-yl)-3-buten-2-ol]",0%,60%,0%,0%,0%,0%,0%,0%,0%,0%,0%,0%,0%,0%,0,0,0,0,40,0%,"responders at 150 mg/kg ([1]; ATCC11651, 168 h, day 7): 100%; responders at 150 mg/kg ([1]; ATCC11651, 336 h, day 14): 100%; responders at 150 mg/kg ([1]; ATCC11651, 504 h, day 21): 100%; pest or weed control at 20 ppm (Venturia inaequalis; 20 PPM): 47%; pest or weed control at 20 ppm ([2]; 20 PPM): 89%; pest or weed control at 20 ppm (Pyricularia oryzae; read-out: disease control rating, Ex. E, 20 PPM): 0%; pest or weed control at 20 ppm (Rhizoctonia solani [3]; 20 PPM): 29%; pest or weed control at 125 g/ha (WATER PLAINTAIN): 0%; pest or weed control at 250 g/ha (WATER PLAINTAIN): 0%; pest or weed control at 500 g/ha (WATER PLAINTAIN): 0%; pest or weed control at 1000 g/ha (WATER PLAINTAIN): 0%; pest or weed control at 64 g/ha (RICE INDICA EFF): 0%; pest or weed control at 125 g/ha (RICE INDICA EFF): 0%; pest or weed control at 250 g/ha (RICE INDICA EFF): 0%; pest or weed control at 500 g/ha (RICE INDICA EFF): 30%; pest or weed control at 1000 g/ha (RICE INDICA EFF): 70%; MIC [5]: 0.03 µg/mL"
C=C(c1ccc(F)cc1)C(O)(Cn1ncnc1I)c1ccc(F)cc1F (stereo not drawn) [Example 1381],51%,73%,50%,0%,0%,0%,0%,0%,0%,0%,0%,0%,0%,30%,0,0,0,40,50,0%,pest or weed control at 100 ppm (Venturia inaequalis): 100%; pest or weed control at 100 ppm [2]: 98%; pest or weed control at 125 g/ha (WATER PLAINTAIN): 0%; pest or weed control at 250 g/ha (WATER PLAINTAIN): 0%; pest or weed control at 500 g/ha (WATER PLAINTAIN): 0%; pest or weed control at 1000 g/ha (WATER PLAINTAIN): 0%; pest or weed control at 64 g/ha (RICE INDICA EFF): 0%; pest or weed control at 125 g/ha (RICE INDICA EFF): 0%; pest or weed control at 250 g/ha (RICE INDICA EFF): 20%; pest or weed control at 500 g/ha (RICE INDICA EFF): 40%; pest or weed control at 1000 g/ha (RICE INDICA EFF): 60%
C=C(c1ccc(F)cc1)C(O)(Cn1ncnc1S)c1ccc(F)cc1F (stereo not drawn) [Example 1304],78%,88%,0%,0%,0%,0%,0%,0%,30%,0%,0%,65%,70%,80%,0,0,0,0,0,0%,pest or weed control at 100 ppm (Venturia inaequalis): 100%; pest or weed control at 100 ppm [2]: 100%; pest or weed control at 125 g/ha (WATER PLAINTAIN): 0%; pest or weed control at 250 g/ha (WATER PLAINTAIN): 0%; pest or weed control at 500 g/ha (WATER PLAINTAIN): 0%; pest or weed control at 1000 g/ha (WATER PLAINTAIN): 65%; pest or weed control at 64 g/ha (RICE INDICA EFF): 0%; pest or weed control at 125 g/ha (RICE INDICA EFF): 0%; pest or weed control at 250 g/ha (RICE INDICA EFF): 0%; pest or weed control at 500 g/ha (RICE INDICA EFF): 0%; pest or weed control at 1000 g/ha (RICE INDICA EFF): 40%
